{"source": "patent US20200261440A1", "about": "“ZINC IONOPHORES AND USES THEREOF” (THE UNIVERSITY OF QUEENSLAND, priority 2017, published 2020)", "key": {"[1]": {"system": "Streptococcus pneumoniae 23F", "experiment": "MIC by broth microdilution (CLSI)", "type": "cell-based", "settings": "Streptococcus pneumoniae, 23F, read-out: MIC"}, "[2]": {"system": "Methicillin-resistant Staphylococcus aureus (MRSA) strain USA300", "experiment": "MIC by broth microdilution (CLSI)"}, "[3]": {"system": "Klebsiella pneumoniae strain MS6771", "experiment": "MIC by broth microdilution (CLSI)", "type": "cell-based"}, "[4]": {"system": "Vancomycin-resistant Enterococci (VRE) clinical isolate RBWH1", "experiment": "MIC by broth microdilution (CLSI)", "type": "cell-based, Enterococcus", "protocol": "(§1) J. Path. Bact. […] Proc. Soc.\n(§2) MIC assays were carried out in biological triplicates.\n(§3) M100 Performance Standards for Antimicrobial Susceptibility Testing, 27th Edition."}, "[5]": {"system": "MCR-1 E. coli strain MS8345", "experiment": "MIC by broth microdilution (CLSI)", "type": "cell-based, Escherichia coli", "settings": "for antibiotic sensitivity of resistant strain: MCR1-positive E. coli MS8345; for MIC: MCR-1 E. coli", "protocol": "as §1\nJ Infect Dis. 1995 171:890-6). E. coli strain MS8345 is a MCR-1 resistant clinical isolate supplied by Prof. D. L. Paterson, University of Queensland Centre for Clinical Research.\n(§4) (2017)]. […] MIC assays were carried out in biological triplicates."}, "[6]": {"system": "P. aeruginosa strain 253-43-C", "experiment": "MIC by broth microdilution (CLSI)", "type": "cell-based, Pseudomonas aeruginosa", "protocol": "They were obtained from Jan Bell, Australian Centre of Microbial Resistance Ecology (ACARE), University of Adelaide, Australia.\nas §4"}, "[7]": {"system": "GAS strain HKU16 (Streptococcus pyogenes strain HKU16)", "experiment": "microbe, parasite or virus in culture", "type": "cell-based", "protocol": "as §1, §2, §3"}}, "note": "Like-named read-outs stand apart in the source and are kept apart here. Marks after values point to notes of the source that are not given here."}
{"compound": "CN(C)[C@@H]1C(O)=C(C(N)=O)C(=O)[C@@]2(O)C(O)=C3C(=O)c4c(O)cccc4[C@@](C)(O)[C@H]3C[C@@H]12", "note": "[Tetracycline, tetracycline]", "values": [{"measurement": "MIC", "setting": "[1]; PBT2: 0 μM, Zinc: 0 μM", "result": 32, "unit": "µg/mL"}, {"measurement": "MIC", "setting": "[1]; PBT2: 8 μM, Zinc: 32 μM", "result": 1, "unit": "µg/mL"}, {"measurement": "MIC", "setting": "[1]; PBT2: 8 μM", "result": 32, "unit": "µg/mL"}, {"measurement": "MIC", "setting": "[1]; Zinc: 32 μM", "result": 32, "unit": "µg/mL"}, {"measurement": "MIC", "setting": "[2]; Staphylococcus aureus, MRSA|USA300, MRSA, RA-HQ-12: 0 μM, Zn: 0 μM, oxacillin with 2% NaCl", "result": 0.5, "unit": "µg/mL"}, {"measurement": "MIC", "setting": "[3]; Klebsiella pneumoniae, MS6771, K. pneumoniae, RA-HQ-12: 0 μM, Zn: 0 μM, read-out: MIC", "result": 32, "unit": "µg/mL"}, {"measurement": "MIC", "setting": "[3]; Klebsiella pneumoniae, MS6771, K. pneumoniae, RA-HQ-12: 16 μM, Zn: 64 μM, read-out: MIC", "result": 32, "unit": "µg/mL"}, {"measurement": "MIC", "setting": "[3]; Klebsiella pneumoniae, MS6771, K. pneumoniae, RA-HQ-12: 16 μM, read-out: MIC", "result": 32, "unit": "µg/mL"}, {"measurement": "MIC", "setting": "[3]; Klebsiella pneumoniae, MS6771, K. pneumoniae, Zn: 64 μM, read-out: MIC", "result": 32, "unit": "µg/mL"}, {"measurement": "MIC", "setting": "[3]; Klebsiella pneumoniae, MS6771, Klebsiella pneumoniae, CQ: 0 μM, Zinc: 0 μM, read-out: MIC", "result": "32 to 64", "unit": "µg/mL"}, {"measurement": "MIC", "setting": "[3]; Klebsiella pneumoniae, MS6771, Klebsiella pneumoniae, CQ: 64 μM, Zinc: 256 μM, read-out: MIC", "result": "4 to 8", "unit": "µg/mL"}, {"measurement": "MIC", "setting": "[3]; Klebsiella pneumoniae, MS6771, Klebsiella pneumoniae, CQ: 64 μM, read-out: MIC", "result": 16, "unit": "µg/mL"}, {"measurement": "MIC", "setting": "[3]; Klebsiella pneumoniae, MS6771, Klebsiella pneumoniae, PBT2: 0 μM, Zinc: 0 μM, read-out: MIC", "result": "16 to 32", "unit": "µg/mL"}, {"measurement": "MIC", "setting": "[3]; Klebsiella pneumoniae, MS6771, Klebsiella pneumoniae, PBT2: 64 μM, Zinc: 256 μM, read-out: MIC", "result": 4, "unit": "µg/mL"}, {"measurement": "MIC", "setting": "[3]; Klebsiella pneumoniae, MS6771, Klebsiella pneumoniae, PBT2: 64 μM, read-out: MIC", "result": 8, "unit": "µg/mL"}, {"measurement": "MIC", "setting": "[3]; Klebsiella pneumoniae, MS6771, Klebsiella pneumoniae, Zinc: 256 μM (CQ panel), read-out: MIC", "result": 8, "unit": "µg/mL"}, {"measurement": "MIC", "setting": "[3]; Klebsiella pneumoniae, MS6771, Klebsiella pneumoniae, Zinc: 256 μM (PBT2 panel), read-out: MIC", "result": 8, "unit": "µg/mL"}, {"measurement": "MIC", "setting": "[4]; Enterococcus, VRE, VRE RBWH1, CQ: 2.5 μM, Zinc: 32 μM, read-out: MIC", "result": "1 to 2", "unit": "µg/mL"}]}
{"compound": "polymyxin B", "values": [{"measurement": "MIC", "setting": "[2]; MRSA USA300, CQ: 1 μM", "result": 64, "unit": "µg/mL"}, {"measurement": "MIC", "setting": "[2]; MRSA USA300, CQ: 1 μM, Zinc: 32 μM", "result": 2, "unit": "µg/mL"}, {"measurement": "MIC", "setting": "[2]; MRSA USA300, PBT2: 0 μM, Zinc: 0 μM", "result": 64, "unit": "µg/mL"}, {"measurement": "MIC", "setting": "[2]; MRSA USA300, PBT2: 2 μM", "result": 64, "unit": "µg/mL"}, {"measurement": "MIC", "setting": "[2]; MRSA USA300, PBT2: 2 μM, Zinc: 50 μM", "result": 2, "unit": "µg/mL"}, {"measurement": "antibiotic resensitization", "setting": "[2]; MRSA USA 300, RA-HQ-12+zinc(II) ions (ZnSO4)", "result": "resensitize"}, {"measurement": "MIC", "setting": "[2]; MRSA USA300, Zinc: 50 μM", "result": 64, "unit": "µg/mL"}, {"measurement": "antibiotic sensitivity of resistant strain", "setting": "[2]; MRSA USA300, addition of sub-inhibitory PBT2+zinc(II) ions", "result": "became sensitive"}, {"measurement": "MIC", "setting": "[2]; MRSA, RA-HQ-12: 3.5 μM, Zn: […], oxacillin with 2% NaCl", "result": "4^# μg/mL"}, {"measurement": "MIC", "setting": "[2]; MRSA, RA-HQ-12: 3.5 μM, oxacillin with 2% NaCl", "result": 32, "unit": "µg/mL"}, {"measurement": "MIC", "setting": "[3]; K. pneumoniae, RA-HQ-12: 16 μM, Zn: 64 μM", "result": "4^# μg/mL"}, {"measurement": "antibiotic resensitization", "setting": "[3]; Klebsiella pneumoniae MS6771, RA-HQ-12+zinc(II) ions (ZnSO4)", "result": "resensitize"}, {"measurement": "antibiotic sensitivity of resistant strain", "setting": "[3]; Klebsiella pneumoniae MS6771, addition of sub-inhibitory PBT2+zinc(II) ions", "result": "became sensitive"}, {"measurement": "antibiotic sensitivity of resistant strain", "setting": "[3]; Klebsiella pneumoniae MS6771, combination with PBT2, no zinc", "result": "resulted in sensitivity"}, {"measurement": "MIC", "setting": "[3]; Klebsiella pneumoniae, CQ: 0 μM, Zinc: 0 μM", "result": 64, "unit": "µg/mL"}, {"measurement": "MIC", "setting": "[3]; Klebsiella pneumoniae, CQ: 64 μM", "result": 2, "unit": "µg/mL"}, {"measurement": "MIC", "setting": "[3]; Klebsiella pneumoniae, CQ: 64 μM, Zinc: 256 μM", "result": 2, "unit": "µg/mL"}, {"measurement": "MIC", "setting": "[3]; Klebsiella pneumoniae, PBT2: 0 μM, Zinc: 0 μM", "result": "32 to 64", "unit": "µg/mL"}, {"measurement": "MIC", "setting": "[3]; Klebsiella pneumoniae, Zinc: 256 μM (CQ panel)", "result": "32 to 64", "unit": "µg/mL"}, {"measurement": "MIC", "setting": "[3]; Klebsiella pneumoniae, Zinc: 256 μM (PBT2 panel)", "result": "32 to 64", "unit": "µg/mL"}, {"measurement": "antibiotic sensitivity of resistant strain", "setting": "[5]; addition of sub-inhibitory PBT2+zinc(II) ions", "result": "became sensitive"}, {"measurement": "antibiotic sensitivity of resistant strain", "setting": "[5]; combination with PBT2, no zinc", "result": "resulted in sensitivity"}, {"measurement": "MIC", "setting": "[5]; CQ: 0 μM, Zinc: 0 μM", "result": 8, "unit": "µg/mL"}, {"measurement": "MIC", "setting": "[5]; CQ: 5 μM", "result": "2 to 4", "unit": "µg/mL"}, {"measurement": "MIC", "setting": "[5]; CQ: 5 μM, Zinc: 25 μM", "result": 1, "unit": "µg/mL"}, {"measurement": "MIC", "setting": "[5]; PBT2: 0 μM, Zinc: 0 μM", "result": 8, "unit": "µg/mL"}, {"measurement": "MIC", "setting": "[5]; PBT2: 7 μM", "result": 1, "unit": "µg/mL"}, {"measurement": "MIC", "setting": "[5]; PBT2: 7 μM, Zinc: 200 μM", "result": 0.5, "unit": "µg/mL"}, {"measurement": "MIC", "setting": "[5]; Zinc: 25 μM", "result": 8, "unit": "µg/mL"}, {"measurement": "MIC", "setting": "[5]; Zinc: 200 μM", "result": 8, "unit": "µg/mL"}, {"measurement": "MIC", "setting": "[6]; PBT2", "result": 1, "unit": "µg/mL"}, {"measurement": "MIC", "setting": "[6]; Untreated", "result": 8, "unit": "µg/mL"}, {"measurement": "MIC", "setting": "[4]; VRE RBWH1, CQ: 2.5 μM", "result": 64, "unit": "µg/mL"}, {"measurement": "MIC", "setting": "[4]; VRE RBWH1, CQ: 2.5 μM, Zinc: 32 μM", "result": "0.5 to 1", "unit": "µg/mL"}, {"measurement": "MIC", "setting": "[4]; VRE RBWH1, PBT2: 1.75 μM", "result": 64, "unit": "µg/mL"}, {"measurement": "MIC", "setting": "[4]; VRE RBWH1, PBT2: 1.75 μM, Zinc: […]", "result": 0.5, "unit": "µg/mL"}, {"measurement": "antibiotic resensitization", "setting": "[4]; VRE RBWH1, RA-HQ-12+zinc(II) ions (ZnSO4)", "result": "resensitize"}, {"measurement": "antibiotic sensitivity of resistant strain", "setting": "[4]; VRE RBWH1, addition of sub-inhibitory PBT2+zinc(II) ions", "result": "became sensitive"}, {"measurement": "MIC", "setting": "[4]; VRE, RA-HQ-12: 3.5 μM", "result": 16, "unit": "µg/mL"}, {"measurement": "MIC", "setting": "[4]; VRE, RA-HQ-12: 3.5 μM, Zn: […]", "result": "4^# μg/mL"}, {"measurement": "antibiotic resensitization", "setting": "[7]; GAS HKU16, RA-HQ-12+zinc(II) ions (ZnSO4)", "result": "resensitize"}, {"measurement": "antibiotic sensitivity of resistant strain", "setting": "[7]; GAS HKU16, addition of sub-inhibitory PBT2+zinc(II) ions", "result": "became sensitive"}, {"measurement": "MIC", "setting": "[7]; GAS, RA-HQ-12: 3.5 μM, Zn: […]", "result": "4^# μg/mL"}, {"measurement": "MIC", "setting": "[7]; Streptococcus pyogenes HKU16, CQ: 0 μM, Zinc: 0 μM", "result": 64, "unit": "µg/mL"}, {"measurement": "MIC", "setting": "[7]; Streptococcus pyogenes HKU16, CQ: 6 μM", "result": 32, "unit": "µg/mL"}, {"measurement": "MIC", "setting": "[7]; Streptococcus pyogenes HKU16, CQ: 6 μM, Zinc: 80 μM", "result": 1, "unit": "µg/mL"}, {"measurement": "MIC", "setting": "[7]; Streptococcus pyogenes HKU16, PBT2: 0 μM, Zinc: 0 μM", "result": "64 to 128", "unit": "µg/mL"}, {"measurement": "MIC", "setting": "[7]; Streptococcus pyogenes HKU16, PBT2: 4.75 μM", "result": 32, "unit": "µg/mL"}, {"measurement": "MIC", "setting": "[7]; Streptococcus pyogenes HKU16, PBT2: 4.75 μM, Zinc: […]", "result": "1 to 2", "unit": "µg/mL"}, {"measurement": "MIC", "setting": "[7]; Streptococcus pyogenes HKU16, Zinc: 80 μM", "result": 64, "unit": "µg/mL"}, {"measurement": "MIC", "setting": "[7]; Streptococcus pyogenes HKU16, Zinc: […] (PBT2 panel)", "result": 64, "unit": "µg/mL"}]}
